Several values for one entry are separate records, joined by “and”; a condition that tells them apart may be missing. Equal entries are not always repeated.
How the values were obtained:
KB [1] = test: Cytotoxicity MTT assay, KB nasopharynx carcinoma; assay type: cell-based, human; conditions: Homo sapiens; KB, MTT, 72 h; read-out: Cytotoxic activity CC50
Description: (§1) Three types of cancer cell lines obtained from the American Type Culture Collection (ATCC) were cultured: two oral-laryngeal cancer cell lines, nasopharynx carcinoma (KB, ATCC-CCL-17) and laryngeal carcinoma (Hep-2, ATCC-CCL-23); two cervix-uterine cancer cell lines, cervix adenocarcinoma (HeLa, ATCC-CCL-2) and cervix squamous carcinoma (SiHa, ATCC-HTB-35); and two prostate cancer cell lines, prostate carcinoma (DU-145, ATCC-HTB-81) and prostate adenocarcinoma (PC-3, ATCC-CRL-1435); along with one normal cell line (MDCK, ATCC-CCL-34). The cells were cultured in sterile Costar T75 flasks containing DMEM (Gibco, Hong Kong, China), supplemented with fetal bovine serum (10%, v/v), 100 U/mL penicillin G, and […] streptomycin at 37 °C in an atmosphere of 5% CO2 (95% humidity). At 70%–80% confluence, cells were detached from the cultured flask by treatment with 0.05% trypsin-EDTA (Gibco), and a suspension of 5 × 10^4 cells/mL of viable cells was seeded in a 96-well microtiter plate (Costar, Washington, DC, USA) and incubated. Cytotoxicity was assessed by the MTT assay as previously described by Rahman. When cells reached 90% confluence in a microtiter plate, the DMEM was replaced with fresh medium and cells were incubated with compounds at various concentrations. […] The medium was aspirated, and the formazan product was solubilized with acidified isopropanol (0.4 N HCl). The amount of MTT-formazan is directly proportional to the number of living cells and was determined by measuring the optical density (OD) at 590 nm using a bioassay reader (Bio-Rad). All determinations were performed in triplicate. The cytotoxic and antiproliferative activities of tested compounds were calculated as the percentage of cells killed or the percentage of inhibition of cell proliferation, respectively, using the equation: growth inhibition (%) = (ODcontrol − ODsample/ODcontrol) × 100. […] In addition, the level of cytotoxicity on normal cells was evaluated by determining the selectivity index (SI) of each compound, which is calculated as the ratio of cytotoxicity or reduced cell growth on normal cells to cancer cells (SI = normal cells/cancer cells).

KB [2] = test: Antiproliferative sulforhodamine B assay, KB; assay type: cell-based, human; conditions: for IC50: Homo sapiens, KB, SRB, 48 h; for Selectivity index (SI) of antiproliferative activity: IC50 MDCK normal cells / KB
Description: (§2) Three types of cancer cell lines obtained from the American Type Culture Collection (ATCC) were cultured: two oral-laryngeal cancer cell lines, nasopharynx carcinoma (KB, ATCC-CCL-17) and laryngeal carcinoma (Hep-2, ATCC-CCL-23); two cervix-uterine cancer cell lines, cervix adenocarcinoma (HeLa, ATCC-CCL-2) and cervix squamous carcinoma (SiHa, ATCC-HTB-35); and two prostate cancer cell lines, prostate carcinoma (DU-145, ATCC-HTB-81) and prostate adenocarcinoma (PC-3, ATCC-CRL-1435); along with one normal cell line (MDCK, ATCC-CCL-34). The cells were cultured in sterile Costar T75 flasks containing DMEM (Gibco, Hong Kong, China), supplemented with fetal bovine serum (10%, v/v), 100 U/mL penicillin G, and […] streptomycin at 37 °C in an atmosphere of 5% CO2 (95% humidity). At 70%–80% confluence, cells were detached from the cultured flask by treatment with 0.05% trypsin-EDTA (Gibco), and a suspension of 5 × 10^4 cells/mL of viable cells was seeded in a 96-well microtiter plate (Costar, Washington, DC, USA) and incubated.
(§3) The growth inhibition of cancer cells was evaluated by the sulforhodamine B method. When cells reached 70% confluence in a microtiter plate, the medium was replaced with DMEM 5% FBS and samples at various concentrations. After 48 h, the medium was discarded, and cells were fixed by adding 50 μL of 10% trichloroacetic acid (TCA, Sigma-Aldrich Chemical, St. Louis, MO, USA). The cells were then incubated at 4 °C for 30 min; TCA was drained off, and the plates were left to dry. Then, 50 μL of SRB stain (10 mg of 1% acetic acid, Sigma) were added to each well for 30 min. Finally, the plates were washed four times with 1% acetic acid (100 μL). The OD was measured at 540 nm using an ELISA reader (Bio-Rad). Docetaxel was used as a positive control, whereas cells incubated only with 0.05% of DMSO were used as a negative control. All determinations were performed in triplicate.
(§4) The cytotoxic and antiproliferative activities of tested compounds were calculated as the percentage of cells killed or the percentage of inhibition of cell proliferation, respectively, using the equation: growth inhibition (%) = (ODcontrol − ODsample/ODcontrol) × 100. […] In addition, the level of cytotoxicity on normal cells was evaluated by determining the selectivity index (SI) of each compound, which is calculated as the ratio of cytotoxicity or reduced cell growth on normal cells to cancer cells (SI = normal cells/cancer cells). It is generally considered that biological efficacy is not due to general toxicity when SI ≥ 10 [17].

[3] = Cytotoxicity MTT assay, MDCK normal cell line; assay type: cell-based; conditions: dog, MDCK cells (normal cell line), read-out: Cytotoxic activity CC50
Description: as §1

MDCK = test: Antiproliferative sulforhodamine B assay, MDCK normal cell line; assay type: cell-based; conditions: Canis lupus familiaris, SRB, 48 h
Description: as §2, §3, §4

Hep-2 [4] = test: Antiproliferative sulforhodamine B assay, Hep-2; assay type: cell-based, human; conditions: for IC50: Homo sapiens, Hep-2, SRB, 48 h
Description: as §2, §3, §4

PC-3 [5] = test: Cytotoxicity MTT assay, PC-3 prostate adenocarcinoma; assay type: cell-based, human; conditions: Homo sapiens; PC-3, MTT, 72 h; read-out: Cytotoxic activity CC50
Description: as §1

SiHa [6] = test: Antiproliferative sulforhodamine B assay, SiHa; assay type: cell-based, human; conditions: for IC50: Homo sapiens, SiHa, SRB, 48 h; for Selectivity index (SI) of antiproliferative activity: IC50 MDCK normal cells / SiHa
Description: as §2, §3, §4

HeLa [7] = test: Antiproliferative sulforhodamine B assay, HeLa; assay type: cell-based, human; conditions: for IC50: Homo sapiens, HeLa, SRB, 48 h
Description: as §2, §3, §4

SiHa [8] = test: Cytotoxicity MTT assay, SiHa cervix squamous carcinoma; assay type: cell-based, human; conditions: Homo sapiens; SiHa, MTT, 72 h; read-out: Cytotoxic activity CC50
Description: as §1

DU-145 [9] = test: Antiproliferative sulforhodamine B assay, DU-145; assay type: cell-based, human; conditions: for IC50: Homo sapiens, DU-145, SRB, 48 h
Description: as §2, §3, §4

PC-3 [10] = test: Antiproliferative sulforhodamine B assay, PC-3; assay type: cell-based; conditions: Homo sapiens; PC-3, SRB, 48 h
Description: as §2, §3, §4

tested cell lines = test: Cytotoxicity and antiproliferative bioassays, whole panel of tested cell lines; assay type: cell-based; conditions: all tested cell lines
Description: as §2, with “At 70%–80% confluence, cells were detached from the cultured flask by treatment with 0.05% trypsin-EDTA (Gibco), and a suspension of 5 × 10^4 cells/mL of viable cells was seeded in a 96-well microtiter plate (Costar, Washington, DC, USA) and incubated.” left out
Cytotoxicity was assessed by the MTT assay as previously described by Rahman. […] The amount of MTT-formazan is directly proportional to the number of living cells and was determined by measuring the optical density (OD) at 590 nm using a bioassay reader (Bio-Rad). […]
The growth inhibition of cancer cells was evaluated by the sulforhodamine B method. […] The OD was measured at 540 nm using an ELISA reader (Bio-Rad). […]

HeLa [11] = test: Cytotoxicity MTT assay, HeLa cervix adenocarcinoma; assay type: cell-based, human; conditions: Homo sapiens; HeLa, MTT, 72 h; read-out: Cytotoxic activity CC50
Description: as §1

Hep-2 [12] = test: Cytotoxicity MTT assay, Hep-2 laryngeal carcinoma; assay type: cell-based, human; conditions: Homo sapiens; Hep-2, MTT, 72 h; read-out: Cytotoxic activity CC50
Description: as §1

DU-145 [13] = test: Cytotoxicity MTT assay, DU-145 prostate carcinoma; assay type: cell-based, human; conditions: Homo sapiens; DU-145, MTT, 72 h; read-out: Cytotoxic activity CC50
Description: as §1

[14] = Cytotoxicity MTT assay, PC-3 prostate adenocarcinoma; assay type: cell-based, human; conditions: human, MDCK normal cells versus PC-3 prostate adenocarcinoma cells; CC50 MDCK normal cells / PC-3; read-out: Selectivity index (SI) of cytotoxic activity
Description: as §1

[15] = Cytotoxicity MTT assay, DU-145 prostate carcinoma; assay type: cell-based, human; conditions: human, MDCK normal cells versus DU-145 prostate carcinoma cells; CC50 MDCK normal cells / DU-145; read-out: Selectivity index (SI) of cytotoxic activity
Description: as §1

[16] = Cytotoxicity MTT assay, KB nasopharynx carcinoma; assay type: cell-based, human; conditions: human, MDCK normal cells versus KB nasopharynx carcinoma cells; CC50 MDCK normal cells / KB; read-out: Selectivity index (SI) of cytotoxic activity
Description: as §1

[17] = Cytotoxicity MTT assay, SiHa cervix squamous carcinoma; assay type: cell-based, human; conditions: human; CC50 MDCK normal cells / SiHa; read-out: Selectivity index (SI) of cytotoxic activity
Description: as §1

[18] = Cytotoxicity MTT assay, HeLa cervix adenocarcinoma; assay type: cell-based, human; conditions: human, MDCK normal cells versus HeLa cervix adenocarcinoma cells; CC50 MDCK normal cells / HeLa; read-out: Selectivity index (SI) of cytotoxic activity
Description: as §1

[19] = Cytotoxicity MTT assay, Hep-2 laryngeal carcinoma; assay type: cell-based, human; conditions: dog MDCK normal cells versus Hep-2 laryngeal carcinoma cells; CC50 MDCK normal cells / Hep-2; read-out: Selectivity index (SI) of cytotoxic activity
Description: as §1

Structure (SMILES) | CC50 (KB [1]) | IC50 (KB [2]) | CC50 at 72 h [3] | IC50 (MDCK) | IC50 (Hep-2 [4]) | CC50 (PC-3 [5]) | IC50 (SiHa [6]) | IC50 (HeLa [7]) | CC50 (SiHa [8]) | IC50 (DU-145 [9]) | IC50 (PC-3 [10]) | CC50 (HeLa [11]) | CC50 (Hep-2 [12]) | CC50 (DU-145 [13]) | Selectivity index (SI) of antiproliferative activity (KB [2]) | selectivity ratio at 72 h [14] | selectivity ratio at 72 h [15] | selectivity ratio at 72 h [16] | Selectivity index (SI) of antiproliferative activity (SiHa [6]) | selectivity ratio at 72 h [17] | other results
CC(C)=CCc1c(O)c(C(=O)/C=C/c2ccccc2)cc2c1OC(C)(C)C=C2 [Compound 1, spinochalcone C] | > 100 µg/mL | > 100 µM | > 100 µg/mL | > 100 µM | > 100 µM | > 100 µg/mL | > 100 µM | > 100 µM | > 100 µg/mL | > 100 µM | > 100 µM | > 100 µg/mL | > 100 µg/mL | > 100 µg/mL | – | – | – | – | – | – | Active concentration on tested cell lines (no activity to the maximum concentration) (tested cell lines): > 100 µM
CC(C)=CCc1cc(C(=O)/C=C/c2ccccc2)c(O)c(CC=C(C)C)c1O [Compound 2, spinochalcone A] | > 100 µg/mL | 6 µg/mL and 16 µM | 92.1 µg/mL and 245 µM | 18.7 µg/mL and 50 µM | > 100 µM | 9.7 µg/mL and 26 µM | > 100 µM | > 100 µM | > 100 µg/mL | > 100 µM | > 100 µM | > 100 µg/mL | > 100 µg/mL | 6.1 µg/mL and 16.3 µM | 3.1 | 9.4 | 15 | – | – | – | –
C=CC(C)(C)c1cc(C2COc3cc(O)ccc3C2)c(O)c(O)c1OC (stereo not drawn) [Compound 4, secundiflorol G] | 5.3 µg/mL and 15 µM | > 100 µM | 29.7 µg/mL and 83.4 µM | 25.4 µg/mL and 72 µM | > 100 µM | 16.5 µg/mL and 46.4 µM | 21.2 µg/mL and 60 µM | > 100 µM | 14.7 µg/mL and 41.3 µM | > 100 µM | > 100 µM | 8.1 µg/mL and 23 µM | 3.9 µg/mL and 11 µM | 21.5 µg/mL and 60.6 µM | – | 1.8 | 1.3 | 5.5 | 1.2 | 2 | selectivity ratio at 72 h [18]: 3.6; selectivity ratio at 72 h [19]: 7.6
CC(=O)O[C@@]12CO[C@@H]1C[C@H](O)[C@@]1(C)C(=O)[C@H](O)C3=C(C)[C@@H](OC(=O)[C@H](O)[C@@H](NC(=O)OC(C)(C)C)c4ccccc4)C[C@@](O)([C@@H](OC(=O)c4ccccc4)[C@H]21)C3(C)C [Docetaxel, reference compound] | 0.2 µg/mL and 300 nM | 0.04 µg/mL and 60 nM | 1.1 µg/mL and 1.4 µM | 0.11 µg/mL and 140 nM | 0.05 µg/mL and 70 nM | 0.07 µg/mL and 100 nM | 0.07 µg/mL and 100 nM | 0.03 µg/mL and 40 nM | 0.17 µg/mL and 220 nM | 0.01 µg/mL and 20 nM | 0.007 µg/mL and 10 nM | 0.19 µg/mL and 250 nM | 0.07 µg/mL and 100 nM | 0.007 µg/mL and 10 nM | 2.3 | 14 | 140 | 4.6 | 1.4 | 6.3 | Selectivity index (SI) of antiproliferative activity (Hep-2 [4]; IC50 MDCK normal cells / Hep-2): 2.0; Selectivity index (SI) of antiproliferative activity (HeLa [7]; IC50 MDCK normal cells / HeLa): 3.5; Selectivity index (SI) of antiproliferative activity (DU-145 [9]; IC50 MDCK normal cells / DU-145): 7; selectivity ratio at 72 h [18]: 5.6; selectivity ratio at 72 h [19]: 14

Source: publication PMC6332200, “Isolation and Identification of Cytotoxic Compounds from Aeschynomene fascicularis, a Mayan Medicinal Plant” (Molecules, 2015)
